Consider 14 compounds from patent publication US10676465B2, “GLP-1 receptor agonists and uses thereof” (Pfizer Inc., priority 2018, dated 2020).

In general, EC50 refers to the concentration giving half of the maximal effect. As a reminder, the Emax is the size of the effect at its maximum, as opposed to the concentration needed.

Where two headings read alike, the source gives them in different places.

Assay [1] has as its target human GLP-1R (Homo sapiens, UniProt P43220, G168S). The assay can be described thus: CHO GLP-1R Clone H6 - Assay 1 (HTRF cAMP agonist assay). It is filed as cell-based. The conditions noted are these: for EC50: CHO GLP-1R Clone H6, cAMP HTRF, geometric mean; for Emax / Assay 1 Emax (%): CHO GLP-1R Clone H6, arithmetic mean, relative to saturating GLP-1 (1 μM).
Assay [2] deals with human GLP-1R (Homo sapiens (Human), UniProt P43220, L260F). The assay can be described thus: CHO GLP-1R Clone C6 - Assay 2 (HTRF cAMP agonist assay, low receptor density). The conditions noted are these: for EC50 / Assay 2 Emax (%): CHO GLP-1R Clone C6 (low receptor density); for EC50: cAMP HTRF, geometric mean; for Emax: read-out: Assay 2 Emax (%), CHO GLP-1R Clone C6 (low receptor density); for Emax / Assay 2 Emax (%): arithmetic mean, relative to saturating GLP-1 (1 μM).
human GLP-1R (Homo sapiens (Human), UniProt P43220, L260F), sequence (P43220 24-463 L260F): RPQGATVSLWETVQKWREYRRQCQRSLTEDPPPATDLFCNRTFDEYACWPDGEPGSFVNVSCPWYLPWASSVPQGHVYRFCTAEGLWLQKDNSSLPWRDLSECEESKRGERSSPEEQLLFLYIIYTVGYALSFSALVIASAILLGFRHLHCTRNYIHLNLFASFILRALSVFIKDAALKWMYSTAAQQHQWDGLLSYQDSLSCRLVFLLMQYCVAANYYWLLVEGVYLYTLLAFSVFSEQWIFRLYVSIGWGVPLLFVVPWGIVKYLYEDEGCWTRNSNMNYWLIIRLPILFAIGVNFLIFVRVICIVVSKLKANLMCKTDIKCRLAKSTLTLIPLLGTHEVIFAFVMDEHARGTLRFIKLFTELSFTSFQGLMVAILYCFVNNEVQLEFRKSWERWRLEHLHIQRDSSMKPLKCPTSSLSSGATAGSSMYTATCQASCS
Protocol: CHO GLP-1R Clone C6—Assay 2
GLP-1R-mediated agonist activity was determined with a cell-based functional assay utilizing an HTRF (Homogeneous Time-Resolved Fluorescence) cAMP detection kit (cAMP HI Range Assay Kit; Cis Bio cat #62AM6PEJ) that measures cAMP levels in the cell. The method is a competitive immunoassay between native cAMP produced by the cells and exogenous cAMP labeled with the dye d2. The tracer binding is visualized by a mAb anti-cAMP labeled with Cryptate. The specific signal (i.e. energy transfer) is inversely proportional to the concentration of cAMP in either a standard or an experimental sample.
The human GLP-1R coding sequence (NCBI Reference Sequence NP_002053.3, including naturally-occurring variant Leu260Phe) was subcloned into pcDNA5-FRT-TO and a clonal CHO cell line stably expressing a low receptor density was isolated using the Flp-In™ T-Rex™ System, as described by the manufacturer (ThermoFisher).
Cells were removed from cryopreservation, re-suspended in 40 mL of Dulbecco's Phosphate Buffered Saline (DPBS—Lonza Cat #17-512Q) and centrifuged at 800×g for 5 minutes at 22° C. The DPBS was aspirated, and the cell pellet was re-suspended in 10 mL of complete growth medium (DMEM:F12 1:1 Mixture with HEPES, L-Gln, 500 mL (DMEM/F12 Lonza Cat #12-719F), 10% heat inactivated fetal bovine serum (Gibco Cat #16140-071), 5 mL of 100× Pen-Strep (Gibco Cat #15140-122), 5 mL of 100×L-Glutamine (Gibco Cat #25030-081), 700 μg/mL Hygromycin (Invitrogen Cat #10687010) and 15 μg/mL Blasticidin (Gibco Cat # R21001). A 1 mL sample of the cell suspension in growth media was counted on a Becton Dickinson ViCell to determine cell viability and cell count per mL. The remaining cell suspension was then adjusted with growth media to deliver 1600 viable cells per well using a Matrix Combi Multidrop reagent dispenser, and the cells were dispensed into a white 384 well tissue culture treated assay plate (Corning 3570). The assay plate was then incubated for 48 hours at 37° C. in a humidified environment (95% O2, 5% CO2)
Varying concentrations of each compound to be tested (in DMSO) were diluted in assay buffer [HBSS with Calcium/Magnesium (Lonza/BioWhittaker cat #10-527F)/0.1% BSA (Sigma Aldrich cat # A7409-1L)/20 mM HEPES (Lonza/BioWhittaker cat #17-737E)] containing 100 μM 3-isobutyl-1-methylxanthin (IBMX; Sigma cat #15879). The final DMSO concentration in the compound/assay buffer mixture is 1%.
After 48 hours, the growth media was removed from the assay plate wells, and the cells were treated with 20 μL of the serially diluted compound in assay buffer for 30 minutes at 37° C. in a humidified environment (95% O2, 5% CO2). Following the 30 minute incubation, 10 μL of labeled d2 cAMP and 10 μL of anti-cAMP antibody (both diluted 1:20 in cell lysis buffer; as described in the manufacturer's assay protocol) were added to each well of the assay plate. The plates were then incubated at room temperature and after 60 minutes, changes in the HTRF signal were read with an Envision 2104 multi-label plate reader using excitation of 330 nm and emissions of 615 and 665 nm. Raw data were converted to nM cAMP by interpolation from a cAMP standard curve (as described in the manufacturer's assay protocol) and the percent effect was determined relative to a saturating concentration of the full agonist GLP-1 (1 μM) included on each plate. EC50 determinations were made from agonist dose response curves analyzed with a curve fitting program using a 4-parameter logistic dose response equation.

human GLP-1R (Homo sapiens, UniProt P43220, G168S), sequence (P43220 24-463 G168S limits assumed): as the sequence (P43220 24-463 L260F) above, with G145S, F237L counted along it

On to `COCCn1c(CN2CCC(c3cccc4c3OC(C)(c3ccc(C#N)cn3)O4)CC2)nc2ccc(C(=O)O)cc21` (stereo not shown) [Example 94, ammonium 2-({4-[2-(5-cyanopyridin-2-yl)-2-methyl-1,3-benzodioxol-4-yl]piperidin-1-yl}methyl)-1-(2-methoxyethyl)-1H-benzimidazole-6-carboxylate], for which the EC50 worked out at 12 nM in assay [1] and 360 nM in assay [2] (read-out: Assay 2 EC50). The Emax in assay [2] came to 87%.

Regarding `COCc1cc(Cn2c(CN3CCC(c4cccc5c4OC(C)(c4ccc(Cl)cc4F)O5)CC3)nc3ccc(C(=O)O)cc32)[nH]n1` (stereo not shown) [Example 68, 2-({4-[2-(4-chloro-2-fluorophenyl)-2-methyl-1,3-benzodioxol-4-yl]piperidin-1-yl}methyl)-1-{[3-(methoxymethyl)-1H-pyrazol-5-yl]methyl}-1H-benzimidazole-6-carboxylic acid], the EC50 in assay [1] was found to be 73 nM; in assay [2] (read-out: Assay 2 EC50) it was 1200 nM. In addition, the Emax in assay [1] came to 89%; in assay [2] it was 94%.

In the case of `CC1(c2ccc(Cl)cc2F)Oc2cccc(C3CCN(Cc4nc5ccc(C(=O)O)cc5n4C4CCOC4)CC3)c2O1` (stereo not shown) [Example 61, 2-({4-[2-(4-chloro-2-fluorophenyl)-2-methyl-1,3-benzodioxol-4-yl]piperidin-1-yl}methyl)-1-(tetrahydrofuran-3-yl)-1H-benzimidazole-6-carboxylic acid], the EC50 in assay [1] stood at 10 nM; in assay [2] (read-out: Assay 2 EC50), 240 nM. The Emax in assay [1] was 79%; in assay [2], 85%.

Turning to `COCCn1c(CN2CCC(c3cccc4c3OC(C)(c3ccc(F)c(F)c3)O4)CC2)nc2ccc(C(=O)O)cc21` (stereo not shown) [Example 41, 2-({4-[2-(3,4-difluorophenyl)-2-methyl-1,3-benzodioxol-4-yl]piperidin-1-yl}methyl)-1-(2-methoxyethyl)-1H-benzimidazole-6-carboxylic acid], the EC50 is 91 nM in assay [1] and 2000 nM in assay [2] (Assay 2 EC50 (nM)). Besides, the Emax in assay [1] came out at 78%; in assay [2], 74%.

As to `CN(C)S(=O)(=O)CCn1c(CN2CCC(c3cccc4c3OC(C)(c3ccc(Cl)cc3F)O4)CC2)nc2ccc(C(=O)O)cc21` (stereo not shown) [Example 47, 2-({4-[2-(4-chloro-2-fluorophenyl)-2-methyl-1,3-benzodioxol-4-yl]piperidin-1-yl}methyl)-1-[2-(dimethylsulfamoyl)ethyl]-1H-benzimidazole-6-carboxylic acid], the EC50 in assay [1] came out at 42 nM; in assay [2] (read-out: Assay 2 EC50), 1400 nM. In addition, the Emax in assay [1] is 75%; in assay [2], 76%.

Regarding `Cn1cc(Cn2c(CN3CCC(c4cccc5c4OC(C)(c4ccc(Cl)cc4F)O5)CC3)nc3ccc(C(=O)O)cc32)nn1` (stereo not shown) [Example 63, 2-({4-[2-(4-chloro-2-fluorophenyl)-2-methyl-1,3-benzodioxol-4-yl]piperidin-1-yl}methyl)-1-[(1-methyl-1H-1,2,3-triazol-4-yl)methyl]-1H-benzimidazole-6-carboxylic acid], the figures for the EC50 in assay [1] and in assay [2] (read-out: Assay 2 EC50) were 5.2 nM and 66 nM, respectively. Moreover, the maximal effect (Emax) in assay [1] is 91%; in assay [2], 96%.

Regarding `CCc1ccc(C2(C)Oc3cccc(C4CCN(Cc5nc6ccc(C(=O)O)cc6n5CCOC)CC4)c3O2)cc1` (stereo not shown) [Example 29, 2-({4-[2-(4-ethylphenyl)-2-methyl-1,3-benzodioxol-4-yl]piperidin-1-yl}methyl)-1-(2-methoxyethyl)-1H-benzimidazole-6-carboxylic acid], the values for the EC50 in assay [1] and in assay [2] (read-out: Assay 2 EC50) were 5.3 nM and 150 nM, respectively. Moreover, the Emax in assay [1] is 87%; in assay [2], 93%.

`COCCn1c(CN2CCC(c3cccc4c3OC(C)(c3ccc(OC)cc3F)O4)CC2)nc2ccc(C(=O)O)cc21` (stereo not shown) [Example 35, 2-({4-[2-(2-fluoro-4-methoxyphenyl)-2-methyl-1,3-benzodioxol-4-yl]piperidin-1-yl}methyl)-1-(2-methoxyethyl)-1H-benzimidazole-6-carboxylic acid]: the figures for the EC50 in assay [1] and in assay [2] (read-out: Assay 2 EC50) were 6.6 nM and 170 nM, respectively. The Emax was 86% in assay [1] and 89% in assay [2].

Regarding `CC1(c2ccc(C#N)cc2F)Oc2cccc(C3CCN(Cc4nc5ccc(C(=O)O)cc5n4Cc4ncco4)CC3)c2O1.N` (stereo not shown) [Example 99, ammonium 2-({4-[2-(4-cyano-2-fluorophenyl)-2-methyl-1,3-benzodioxol-4-yl]piperidin-1-yl}methyl)-1-(1,3-oxazol-2-ylmethyl)-1H-benzimidazole-6-carboxylate], in assay [1], the EC50 was 2.8 nM and the “Assay 1 Emax (%)” value is recorded as 99%. For the same compound, the “Assay 2 Emax (%)” value in assay [2] turned out to be 91%. Also, the EC50 in assay [2] (read-out: Assay 2 EC50) stood at 5.4 nM.

Consider `COCCn1c(CN2CCC(c3cccc4c3OC(C)(c3ccc(C(F)(F)F)cc3)O4)CC2)nc2ccc(C(=O)O)cc21` (stereo not shown) [Example 40, 1-(2-methoxyethyl)-2-[(4-{2-methyl-2-[4-(trifluoromethyl)phenyl]-1,3-benzodioxol-4-yl}piperidin-1-yl)methyl]-1H-benzimidazole-6-carboxylic acid], for which the values for the EC50 in assay [1] and in assay [2] (read-out: Assay 2 EC50) were 14 nM and 130 nM, respectively. The figures for the Emax in assay [1] and in assay [2] were 88% and 73%, respectively.

Regarding `CC1(c2ccc(Cl)cc2F)Oc2c(F)ccc(C3CCN(Cc4nc5ccc(C(=O)O)cc5n4C[C@@H]4CCO4)CC3)c2O1` (single isomer, unassigned) [Example 97], the EC50 in assay [1] turned out to be 14 nM; in assay [2] (Assay 2 EC50 (nM)), 140 nM. In assay [1], the “Assay 1 Emax (%)” value is on record as 86%. Moreover, in assay [2], the “Assay 2 Emax (%)” value was determined as 93%.

As to `CC1(c2ccc(Cl)cc2F)Oc2cccc(C3CCN(Cc4nc5ccc(C(=O)O)cc5n4Cc4ccccn4)CC3)c2O1` (stereo not shown) [Example 45, 2-({4-[2-(4-chloro-2-fluorophenyl)-2-methyl-1,3-benzodioxol-4-yl]piperidin-1-yl}methyl)-1-(pyridin-2-ylmethyl)-1H-benzimidazole-6-carboxylic acid], the values for the half-maximal effective concentration (EC50) in assay [1] and in assay [2] (read-out: Assay 2 EC50) were 9.9 nM and 220 nM, respectively. The Emax in assay [1] came out at 81%; in assay [2] it was 79%.

For the compound `Cc1nccn1CCn1c(CN2CCC(c3cccc4c3OC(C)(c3ccc(Cl)cc3F)O4)CC2)nc2ccc(C(=O)O)cc21` (stereo not shown) [Example 62, 2-({4-[2-(4-chloro-2-fluorophenyl)-2-methyl-1,3-benzodioxol-4-yl]piperidin-1-yl}methyl)-1-[2-(2-methyl-1H-imidazol-1-yl)ethyl]-1H-benzimidazole-6-carboxylic acid], the EC50 is 2.2 nM in assay [1] and 82 nM in assay [2] (read-out: Assay 2 EC50). Besides, the Emax came out at 94% in assay [1] and 95% in assay [2].

Turning to `CC1(c2ccc(Cl)cc2F)Oc2cccc(C3CCN(Cc4nc5ccc(C(=O)O)cc5n4CCCn4cncn4)CC3)c2O1` (stereo not shown) [Example 54, 2-({4-[2-(4-chloro-2-fluorophenyl)-2-methyl-1,3-benzodioxol-4-yl]piperidin-1-yl}methyl)-1-[3-(1H-1,2,4-triazol-1-yl)propyl]-1H-benzimidazole-6-carboxylic acid], the EC50 turned out to be 18 nM in assay [1] and 160 nM in assay [2] (read-out: Assay 2 EC50). Besides, the Emax in assay [1] was found to be 82%; in assay [2], 64%.
